Measured values as given in patent US20220125763A1, “COMPOSITIONS PROVIDING ENHANCED ANTIBACTERIAL ACTIVITY AGAINST GRAM-POSITIVE BACTERIA AND USE THEREOF” (ANIFERA LIMITED, priority 2019, published 2022).

Assays:
Test in all cases: Minimum inhibitory concentration of antibiotic with or without imidazole compound
Type in all cases: cell-based
[1] = system: Coagulase-negative staphylococci CN58
Method: (§1) Exemplary embodiments of a 2-(substituted-amino)-imidazole compound in combination with an antibiotic compound were tested to evaluate the effect on minimum inhibitory concentration (MIC).
(§2) In these experiments, a frozen stock of the bacterial strain was streaked onto a sterile brain heart infusion agar plate and incubated at 37° C. for 16-20 hours. After the incubation period, three to five well-isolated bacterial colonies of the same morphologic type were taken from the brain heart infusion agar plate culture and used to inoculate, using a sterile loop, a tube containing 4 mL to 5 mL of cation adjusted Mueller Hinton (MHII) broth. The culture was allowed to grow in a shaking incubator at 220 rpm at 37° C. until the culture reached logarithmic phase, as determined by the measuring of and achieving an optical density (OD) of 0.3 to 0.5 measured at 600 nm. The bacterial concentration of the culture was then adjusted with the addition of MHII broth to achieve the equivalent of 1×10^6 colony-forming unit (CFU)/mL using the approximation that 1×10^9 CFU/mL is equal to OD600 nm=1. Cells were then treated with the designated amount of test compound (shown in Table 1) or a solvent control (dimethyl sulfoxide) for 30 minutes at ambient conditions. Cells were then transferred into 96-well round bottom plates and exposed to 2-fold serial dilutions of the denoted antibiotic.

[2] = system: Coagulase-negative staphylococci CN74
Method: as §1, §2

[3] = system: Coagulase-negative staphylococci CN8
Method: as §1, §2

[4] = system: Staphylococcus aureus B12; settings: S. aureus B12
Method: as §1, §2

Staphylococcus aureus B8 = settings: S. aureus B8
Method: as §1, §2

[5] = system: Staphylococcus aureus Xen30; settings: S. aureus Xen30
Method: as §1, §2

With `CC(C)Nc1ncc(-c2cccc(NC(=O)Nc3ccc(Cl)c(Cl)c3)c2)[nH]1` [Compound 1, 1-(3,4-dichlorophenyl)-3-(3-(2-(Isopropylamino)-1H-Imidazol-5-yl)phenyl)urea] the “Minimum Inhibitory Concentration of penicillin” value (from here on “Minimum Inhibitory Concentration”) ([1]; +Compound 1 at 2 μM) was 0.125 µg/mL, the “Minimum Inhibitory Concentration” value ([2]; +Compound 1 at 2 μM) was 0.5 µg/mL and the “Minimum Inhibitory Concentration” value ([3]; +Compound 1 at 2 μM) was 0.125 µg/mL. The “Minimum Inhibitory Concentration” value ([4]; +Compound 1 at 2 μM) was 1 µg/mL, the “Minimum Inhibitory Concentration” value (Staphylococcus aureus B8; +Compound 1 at 2 μM) was 2 µg/mL and the “Minimum Inhibitory Concentration” value ([5]; +Compound 1 at 4 μM) was 8 µg/mL.
Molecule `Cc1onc(-c2ccccc2)c1C(=O)N[C@@H]1C(=O)N2[C@@H]1SC(C)(C)[C@@H]2C(=O)O` [Oxacillin] has an MIC ([5]; Staphylococcus aureus, No imidazole compound, read-out: Minimum Inhibitory Concentration of Oxacillin) of 128 µg/mL.
With penicillin the “Minimum Inhibitory Concentration” value ([1]; No imidazole compound) was 32 µg/mL, the “Minimum Inhibitory Concentration” value ([2]; No imidazole compound) was 8 µg/mL and the “Minimum Inhibitory Concentration” value ([3]; No imidazole compound) was 2 µg/mL. The “Minimum Inhibitory Concentration” value ([4]; No imidazole compound) was 16 µg/mL, the “Minimum Inhibitory Concentration” value (Staphylococcus aureus B8; No imidazole compound) was 64 µg/mL and the “Minimum Inhibitory Concentration” value ([5]; No imidazole compound) was 128 µg/mL.
